Source: ChEMBL document CHEMBL1144461, “Targeted drug-carrying bacteriophages as antibacterial nanomedicines” (Antimicrob Agents Chemother, 2007)
Calls of active or inactive are those of the source.

Key:
Assay type in all cases: functional, organism-based
[1] = test system: Escherichia coli; experiment: Antibacterial activity against Escherichia coli O78
[2] = test system: Staphylococcus aureus; experiment: Antibacterial activity against Staphylococcus aureus COL
[3] = test system: Streptococcus pyogenes; experiment: Antibacterial activity against Streptococcus pyogenes

Measured: Activity

O=C(N[C@H](CO)[C@H](O)c1ccc([N+](=O)[O-])cc1)C(Cl)Cl
active: all assays above
